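Test compounds were applied to cells in 96-well plates for 48 hours at 5 doses. GI50 marks 50% less growth. TGI marks complete inhibition of growth.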

This is an account of results in PubChem BioAssay (NCI).

Among the test systems are HL-60(TB) leukemia; 786-0 renal; IGROV1 ovarian; SK-MEL-5 melanoma; HT29 colon; MOLT-4 leukemia; HOP-92 NSCLC; A549 NSCLC; SK-MEL-2 melanoma; DU-145 prostate.
Holding throughout (assay): NCI tumour cell line growth inhibition, 48 h

Regarding `C[N+](C)(CCCCCC[N+](C)(C)CCCN1C(=O)c2cc3ccccc3cc2C1=O)CCCN1C(=O)c2cc3ccccc3cc2C1=O`, the GI50 in the test on HL-60(TB) leukemia, in the test on 786-0 renal, in the test on IGROV1 ovarian, in the test with SK-MEL-5 melanoma, in the test with HT29 colon and in the test with MOLT-4 leukemia was more than 37.5 µM each time. In addition, the GI50 in the test on HOP-92 NSCLC, in the test on A549 NSCLC, with SK-MEL-2 melanoma and with DU-145 prostate was more than 37.5 µM throughout. Further, the TGI in the test on HL-60(TB) leukemia, with 786-0 renal, in the test on IGROV1 ovarian, with SK-MEL-5 melanoma, in the test with HT29 colon and in the test with MOLT-4 leukemia was more than 37.5 µM each time. Further, the TGI in the test on HOP-92 NSCLC, in the test with A549 NSCLC, in the test with SK-MEL-2 melanoma and in the test on DU-145 prostate was more than 37.5 µM each time.
For `CC(C)=CCC1=C(OCC(=O)O)C(=O)c2ccccc2C1=O`, the TGI with HL-60(TB) leukemia was 36.1 µM; with 786-0 renal, more than 100 µM; with IGROV1 ovarian it was more than 100 µM; in the test on SK-MEL-5 melanoma, 41.4 µM; with HT29 colon, more than 100 µM; in the test with MOLT-4 leukemia, more than 100 µM. The TGI was more than 100 µM with HOP-92 NSCLC, more than 100 µM with A549 NSCLC, 84.2 µM in the test with SK-MEL-2 melanoma and more than 100 µM in the test with DU-145 prostate.
Take `CC1(C)CCCC(C)(C2CCC3(C)C2C(O)CC2C4(C)CCC(O)C(C)(C)C4C(O)CC23C)O1` (stereo not drawn): the TGI came to 5.44 µM in the test on HL-60(TB) leukemia; 72.5 µM in the test with 786-0 renal; 38.5 µM with IGROV1 ovarian; 17.6 µM with SK-MEL-5 melanoma; 14 µM with HT29 colon; 16.3 µM in the test on MOLT-4 leukemia. The TGI with HOP-92 NSCLC came out at 30.6 µM; with A549 NSCLC, 24.4 µM; with SK-MEL-2 melanoma, 28 µM; in the test with DU-145 prostate, 32.4 µM.
Regarding `COc1ccc(-c2nc(Nc3ccc(-c4nc5ccccc5[nH]4)cc3)nc(N3CCOCC3)n2)cc1`, the GI50 in the test with HL-60(TB) leukemia is 1.94 µM; in the test with 786-0 renal it was 1.44 µM; in the test with SK-MEL-5 melanoma it was 1.79 µM; in the test on HT29 colon it was 2.23 µM; in the test on MOLT-4 leukemia, 2.15 µM; in the test with HOP-92 NSCLC, 1.8 µM. In addition, the GI50 in the test with A549 NSCLC is 3.24 µM; in the test on SK-MEL-2 melanoma, 2.33 µM; in the test on DU-145 prostate, 4.54 µM. Besides, the TGI with HL-60(TB) leukemia stood at 5.67 µM; in the test with 786-0 renal, 3.23 µM; in the test on SK-MEL-5 melanoma, 3.36 µM; in the test with HT29 colon, 5.39 µM; in the test with MOLT-4 leukemia it was 6.13 µM; in the test on HOP-92 NSCLC, 3.74 µM. For the same compound, the figures for the TGI in the test with A549 NSCLC, with SK-MEL-2 melanoma and with DU-145 prostate were more than 100 µM, 5.49 µM and more than 100 µM, respectively.
With `C=C1CCC2C3(C)COC(c4c(OC)cccc4OC)OC3CCC2(C)C1C/C=C1/C(=O)OCC1O` (stereo not drawn), the GI50 in the test on HL-60(TB) leukemia was 1.54 µM; in the test on 786-0 renal it was 3.34 µM; in the test with IGROV1 ovarian, 1.89 µM; in the test on SK-MEL-5 melanoma, 2.83 µM; in the test on HT29 colon, 2.51 µM; with MOLT-4 leukemia, 3.22 µM. Besides, the GI50 was 2.92 µM with HOP-92 NSCLC, 3.14 µM in the test on A549 NSCLC, 7.18 µM in the test with SK-MEL-2 melanoma and 2.96 µM in the test on DU-145 prostate. The TGI in the test on HL-60(TB) leukemia is 4.9 µM; in the test with 786-0 renal, 8.88 µM; with IGROV1 ovarian it was 4 µM; in the test with SK-MEL-5 melanoma it was 8.57 µM; with HT29 colon, 6.62 µM; in the test on MOLT-4 leukemia, 13.3 µM. Further, the TGI with HOP-92 NSCLC turned out to be 8.51 µM; in the test on A549 NSCLC it was 11.6 µM; in the test with SK-MEL-2 melanoma, 21.9 µM; in the test with DU-145 prostate, 7.87 µM.
On to `O=C(N=Nc1c(O)[nH]c2ccccc12)c1oc2ccccc2c1CN1CCN(c2ccccc2)CC1`, for which the GI50 with HL-60(TB) leukemia is 36.5 µM; in the test with 786-0 renal, 0.865 µM; in the test with IGROV1 ovarian, 2.41 µM; in the test with SK-MEL-5 melanoma, 1.49 µM; with HT29 colon it was 4.06 µM; in the test with MOLT-4 leukemia, 1.96 µM. Further, the GI50 in the test on HOP-92 NSCLC was 1.25 µM; in the test with A549 NSCLC, 1.54 µM; with SK-MEL-2 melanoma, 5.46 µM; in the test on DU-145 prostate it was 1.22 µM. In addition, the TGI in the test with HL-60(TB) leukemia is more than 50 µM; in the test with 786-0 renal, 1.84 µM; with IGROV1 ovarian, 11.2 µM; with SK-MEL-5 melanoma, 5.19 µM; in the test with HT29 colon, more than 50 µM; in the test on MOLT-4 leukemia, more than 50 µM. The TGI in the test on HOP-92 NSCLC turned out to be 5.78 µM; in the test on A549 NSCLC, 8.21 µM; with SK-MEL-2 melanoma, 15.8 µM; in the test with DU-145 prostate, 3.27 µM.
In the case of `CCC(C)[C@H](NC(=O)NC(=O)NC(=O)CI)C(=O)OC` (stereo partly drawn), the GI50 in the test on HL-60(TB) leukemia was 1.6 µM; with 786-0 renal, 11.3 µM; in the test on IGROV1 ovarian, 3.47 µM; in the test on SK-MEL-5 melanoma, 16.7 µM; in the test on HT29 colon, 1.92 µM; in the test with MOLT-4 leukemia it was 2.47 µM. Besides, the GI50 with HOP-92 NSCLC was 2.67 µM; with A549 NSCLC it was 19.5 µM; with SK-MEL-2 melanoma it was 14.2 µM; with DU-145 prostate, 15.2 µM. In addition, the TGI came out at 3.4 µM in the test on HL-60(TB) leukemia; 23.4 µM with 786-0 renal; 12.1 µM with IGROV1 ovarian; 30.5 µM in the test with SK-MEL-5 melanoma; 3.59 µM in the test with HT29 colon; 6.74 µM in the test on MOLT-4 leukemia. Also, the TGI in the test with HOP-92 NSCLC is 7.3 µM; with A549 NSCLC, 37 µM; in the test on SK-MEL-2 melanoma, 27.3 µM; in the test with DU-145 prostate, 28.4 µM.
In the case of `Nc1nc2c(nnn2C2OC(CO)C(O)C2O)c(=O)[nH]1` (stereo not drawn), the GI50 is 0.546 µM in the test on HL-60(TB) leukemia; 0.941 µM in the test with 786-0 renal; 2.76 µM in the test with IGROV1 ovarian; 2.44 µM in the test with SK-MEL-5 melanoma; 1.66 µM with HT29 colon; 0.847 µM in the test with MOLT-4 leukemia. In addition, the GI50 was 0.505 µM with HOP-92 NSCLC, 3.01 µM in the test on A549 NSCLC, 0.777 µM with SK-MEL-2 melanoma and 0.371 µM in the test with DU-145 prostate. Also, the TGI in the test with HL-60(TB) leukemia was more than 100 µM; in the test on 786-0 renal, more than 100 µM; in the test on IGROV1 ovarian, more than 100 µM; in the test on SK-MEL-5 melanoma, 9.24 µM; with HT29 colon, 42.6 µM; with MOLT-4 leukemia, more than 100 µM. The TGI in the test on HOP-92 NSCLC was 68.4 µM; in the test with A549 NSCLC it was more than 100 µM; in the test on SK-MEL-2 melanoma, 23.8 µM; in the test on DU-145 prostate, more than 78.8 µM.
